Laboratory results: patent publication US11998551B2, “Treatment of mitochondrial diseases” (FUNDACIÓ HOSPITAL UNIVERSITARI VALL D'HEBRON-INSTITUT DE …, priority 2015, dated 2024)

System: quiescent fibroblasts from healthy controls
Assay: mtDNA copy number (quantitative PCR) after EtBr-forced depletion in quiescent fibroblasts from healthy controls
Type: cell-based, human
Conditions: control cells, 14 days exposure to 5 ng/ml EtBr
Protocol: Primary cultured fibroblasts were obtained from skin biopsies of patients 1-3 and 4 healthy donors. All subjects gave informed consent in accordance with our Institutional Review Boards and the Declaration of Helsinki.
Cells were seeded in 6-well plates of 9.5 cm^2 in Dulbecco's modified Eagle's medium (DMEM) with 4.5 g/L glucose, supplemented with 2 mM L-glutamine, 100 U/ml penicillin and streptomycin, and 10% dialyzed Fetal Bovine Serum (FBS) (Invitrogen) in a humidified incubator at 37° C. and 5% CO2. After tight confluence was reached, FBS was reduced to 0.1% to induce quiescence and simultaneous treatment with 5 ng/ml of EtBr (ethidium bromide, Merck) was initiated (day 0, t0). Cell media was replaced with the same treatment every 2-3 days for two weeks. At day 14 (t14) EtBr was withdrawn from cell media and the treatment of a set of all cells was initiated with 200 μM of all four deoxynucleosides (dNs): dAdo (deoxyadenosine, Sigma), dCtd (deoxycytidine, Sigma), dGuo (deoxyguanosine, Sigma), dThd (deoxythymidine, Sigma) and 5 μM EHNA (Sigma). A set of cells was left untreated and all parameters were monitored in parallel. Cell media was replaced with the same treatment every 2-3 days for 12 additional days. At days 16 or 17 media were collected and stored at −20° C. until further use. […]
mtDNA copy number was assessed by quantitative PCR as previously described. […]

CC[n+]1c(-c2ccccc2)c2cc(N)ccc2c2ccc(N)cc21 [EtBr, ethidium bromide]
averaged percentage of mtDNA residual levels ± SE: 39.68±6.6%
